Consider 28 molecules from patent publication US20240400553A1, “AMINE BASED MATRIPTASE 2 INHIBITORS AND USES THEREOF” (Disc Medicine, Inc., priority 2023, published 2024).

pKi: −log10 of the molar value.

One assay concerns the target T1, Human Recombinant Matriptase 2 (Homo sapiens, UniProt Q8IU80).
T1 construct: made in house
T1 sequence (Q8IU80 1-811): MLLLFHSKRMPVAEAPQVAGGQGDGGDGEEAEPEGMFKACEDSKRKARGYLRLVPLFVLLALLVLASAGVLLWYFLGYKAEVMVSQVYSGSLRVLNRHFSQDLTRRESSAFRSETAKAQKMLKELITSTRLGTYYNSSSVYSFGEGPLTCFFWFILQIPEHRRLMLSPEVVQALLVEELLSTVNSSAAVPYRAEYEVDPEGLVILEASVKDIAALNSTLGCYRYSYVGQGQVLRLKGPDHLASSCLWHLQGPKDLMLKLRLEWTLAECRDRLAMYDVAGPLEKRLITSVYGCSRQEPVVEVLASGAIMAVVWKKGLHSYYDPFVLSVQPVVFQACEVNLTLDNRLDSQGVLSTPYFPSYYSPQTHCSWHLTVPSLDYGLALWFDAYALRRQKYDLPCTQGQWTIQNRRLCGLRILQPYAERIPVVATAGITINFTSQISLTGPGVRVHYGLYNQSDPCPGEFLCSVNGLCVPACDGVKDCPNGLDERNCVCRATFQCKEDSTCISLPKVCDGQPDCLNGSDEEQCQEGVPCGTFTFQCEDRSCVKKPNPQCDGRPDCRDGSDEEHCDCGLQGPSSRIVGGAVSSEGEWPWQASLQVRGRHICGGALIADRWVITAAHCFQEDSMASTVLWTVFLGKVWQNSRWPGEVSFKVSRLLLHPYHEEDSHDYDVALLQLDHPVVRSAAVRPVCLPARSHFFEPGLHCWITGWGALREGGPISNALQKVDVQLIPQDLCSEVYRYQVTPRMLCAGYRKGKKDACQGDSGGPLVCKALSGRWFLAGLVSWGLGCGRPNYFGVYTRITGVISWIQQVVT
The assay is described as follows: Matriptase 2 inhibition, fluorescence based assay (Method I). The assay is classed as biochemical. The settings on record: Table A; Ki of Matriptase-2; read-out: Mat-2 Ki. A digest of the protocol:
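Fluorogenic readout (Ex 360/Em 480 nm) taken 60 min after adding 62 μM Boc-Gln-Ala-Arg-AMC, following 30-min enzyme–compound preincubation at 25 °C. Conditions: 3.5 nM in-house enzyme, pH 7.5 Tris/NaCl/gelatin buffer, 1% DMSO; percent inhibition versus concentration fitted by variable-slope sigmoidal regression.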
With `NCc1ccc2cc(C(=O)OCCCN3CCOCC3)n(Cc3cc(NS(=O)(=O)Cc4ccsc4)cc4ccccc34)c2n1` [Compound 160, 3-(morpholin-4-yl)prop-yl 6-(aminomethyl)-1-({3-[(thiophen-3-yl)meth-anesulfonamido]naph-thalen-1-yl}methyl)-1H-pyrrolo[2,3-b]pyridine-2-carboxylate], the pKi was not below 7.00.
The same measure, in the same setting: as for `CC(C)CN1CCC(COC(=O)c2cc3ccc(CN)nc3n2Cc2cc(NS(=O)(=O)Cc3ccccc3)cc3ccccc23)CC1` [Compound 43, [1-(2-methylpropyl)-piperidin-4-yl]methyl 6-(aminomethyl)-1-{[3-(phenylmethanesulfon-amido)naphthalen-1-yl]-methyl}-1H-pyrrolo[2,3-b]pyridine-2-carboxylate], the figure is not below 7.00.
For `CCOC(=O)c1cc2ccc(CN)nc2n1Cc1cc(NS(=O)(=O)[C@@H](C)c2ccccc2)cc2ccccc12` (racemic) [Compound 119, ethyl 6-(aminomethyl)-1-{[3-(1-phenylethanesul-fonamido)naphthalen-1-yl]methyl}-1H-pyrrolo-[2,3-b]pyridine-2-car-boxylate], the pKi was 5.52 to 6.30.
As to `NCc1ccc2cc(C(=O)OCCN3CCOCC3)n(Cc3cc(NS(=O)(=O)Cc4ccsc4)cc4ccccc34)c2n1` [Compound 168, 2-(morpholin-4-yl)ethyl 6-(aminomethyl)-1-({3-[(thiophen-3-yl)methane-sulfonamido]naphthalen-1-yl}methyl)-1H-pyr-rolo[2,3-b]pyridine-2-carboxylate], the negative logarithm of the Ki (pKi) is not below 7.00.
As to `Cc1cccc(C)c1CS(=O)(=O)Nc1cc(Cn2c(C(=O)OCC3CCN(C)CC3)cc3ccc(CN)nc32)c2ccccc2c1` [Compound 188, (1-methylpiperidin-4-yl)methyl 6-(aminometh-yl)-1-({3-[(2,6-dimethyl-phenyl)methanesulfon-amido]naphthalen-1-yl}-methyl)-1H-pyrrolo[2,3-b]pyridine-2-carboxylate], the pKi is not below 7.00.
For `NCc1ccc2cc(C(=O)OCCOCCN3CCCCC3)n(Cc3cc(NS(=O)(=O)Cc4ccccc4)cc4ccccc34)c2n1` [Compound 56, 2-[2-(piperidin-1-yl)-ethoxy]ethyl 6-(amino-methyl)-1-{[3-(phenyl-methanesulfonamido)-naphthalen-1-yl]methyl}-1H-pyrrolo[2,3-b]pyr-idine-2-carboxylate], the pKi is not below 7.00.
For the molecule `CC(C)OC(=O)c1cc2ccc(CN)nc2n1Cc1cc(NS(=O)(=O)Cc2ccccc2)cc2ccccc12` [Compound 112, propan-2-yl 6-(amino-methyl)-1-{[3-(phenyl-methanesulfonamido)-naphthalen-1-yl]methyl}-1H-pyrrolo[2,3-b]pyr-idine-2-carboxylate], the pKi was 5.52 to 6.30.
Same read-out and setting: as for `COC(=O)c1cc2ccc(CN)nc2n1Cc1cc(NS(=O)(=O)Cc2ccccc2)cc2ccccc12` [Compound 116, methyl 6-(aminomethyl)-1-{[3-(phenylmethane-sulfonamido)naphthalen-1-yl]methyl}-1H-pyrrolo-[2,3-b]pyridine-2-car-boxylate], the figure is 5.52 to 6.30.
Same read-out and setting: then `CN(C)CCOC(=O)c1cc2ccc(CN)nc2n1Cc1cc(NS(=O)(=O)Cc2ccsc2)cc2ccccc12` [Compound 169, 2-(dimethylamino)ethyl 6-(aminomethyl)-1-({3-[(thiophen-3-yl)methane-sulfonamido]naphthalen-1-yl}methyl)-1H-pyr-rolo[2,3-b]pyridine-2-carboxylate], with not below 7.00.
In the case of `Cc1cccc(C)c1CS(=O)(=O)Nc1cc(Cn2c(C(=O)NCC3CCN(C)CC3)cc3ccc(CN)nc32)c2ccccc2c1` [Compound 184, 6-(aminomethyl)-1-({3-[(2,6-dimethylphenyl)-methanesulfonamido]-naphthalen-1-yl}meth-yl)-N-[(1-methylpiper-idin-4-yl)methyl]-1H-pyrrolo[2,3-b]pyridine-2-carboxamide], the pKi is not below 7.00.
Take `NCc1ccc2cc(C(=O)OCC3(CN)CC3)n(Cc3cc(NS(=O)(=O)Cc4ccccc4)cc4ccccc34)c2n1` [Compound 55, [1-(aminomethyl)cyclo-propyl]methyl 6-(amino-methyl)-1-{[3-(phenyl-methanesulfonamido)-naphthalen-1-yl]methyl}-1H-pyrrolo[2,3-b]pyr-idine-2-carboxylate]: the negative-log Ki (pKi) was not below 7.00.
For the molecule `NCc1ccc2cc(C(=O)OCCNC(N)=O)n(Cc3cc(NS(=O)(=O)Cc4ccccc4)cc4ccccc34)c2n1` [Compound 94, 2-(carbamoylamino)-ethyl 6-(aminomethyl)-1-{[3-(phenylmethanesul-fonamido)naphthalen-1-yl]methyl}-1H-pyrrolo-[2,3-b]pyridine-2-carbox-ylate], the pKi is 6.30 to 7.00.
With `CN1CCO[C@@H](COC(=O)c2cc3ccc(CN)nc3n2Cc2cc(NS(=O)(=O)Cc3ccccc3)cc3ccccc23)C1` (racemic) [Compound 64, (4-methylmorpholin-2-yl)methyl 6-(aminometh-yl)-1-{[3-(phenylmeth-anesulfonamido)naph-thalen-1-yl]methyl}-1H-pyrrolo[2,3-b]pyridine-2-carboxylate], the pKi was not below 7.00.

The assay is the same for the next values; noted with them: Table A; Ki of Matriptase-2 given as class symbols; read-out: Mat-2 Ki.
As to `NCc1ccc2cc(C(=O)O)n(Cc3cc(NS(=O)(=O)Cc4ccccc4)cc4c3CCCC4)c2n1` [Compound 285, 6-(aminomethyl)-1-((3-((phenylmethyl)sulfonamido)-5,6,7,8-tetrahydronaphthalen-1-yl)methyl)-1H-pyrrolo[2,3-b]pyridine-2-carboxylic acid], the pKi was 6.30 to 7.00.
`Cn1cc(CS(=O)(=O)Nc2cc(Cn3c(C(=O)O)cc4ccc(CN)nc43)c3ccccc3c2)cn1` [Compound 244, 6-(aminomethyl)-1-({3-[(1-methyl-1H-pyrazol-4-yl)methanesulfonamido]-naphthalen-1-yl}methyl)-1H-pyrrolo[2,3-b]pyr-idine-2-carboxylic acid]: the pKi is 6.30 to 7.00.
Still for that read-out and setting: as for `Cc1ccccc1CS(=O)(=O)Nc1cc(Cn2c(C(=O)OCC3CCN(C)CC3)cc3ccc(CN)nc32)c2ccccc2c1` [Compound 204], the figure is not below 7.00; as for `CC(C)(C)n1cncc1COC(=O)c1cc2ccc(CN)cc2n1Cc1cc(NS(=O)(=O)Cc2ccccc2)cc2ccccc12` [Compound 386, (1-tert-butyl-1H-imid-azol-5-yl)methyl 6-(aminomethyl)-1-{[3-(phenylmethanesulfon-amido)naphthalen-1-yl]-methyl}-1H-indole-2-carboxylate], 6.30 to 7.00; as for `NCc1ccc2cc(C(=O)O)n(Cc3cc(NS(=O)(=O)C[C@H]4CCOC4)cc4ccccc34)c2n1` (racemic) [Compound 262, rac-6-(aminomethyl)-1-[(3-{[(3R)-oxolan-3-yl]-methanesulfonamido}-naphthalen-1-yl)methyl]-1H-pyrrolo[2,3-b]pyr-idine-2-carboxylic acid], 6.30 to 7.00.
For the molecule `Cn1ccnc1COC(=O)c1cc2ccc(CN)cc2n1Cc1cc(NS(=O)(=O)Cc2ccsc2)cc2ccccc12` [Compound 381, (1-methyl-1H-imidazol-2-yl)methyl 6-(amino-methyl)-1-({3-[(thio-phen-3-yl)methanesulfon-amido]naphthalen-1-yl}-methyl)-1H-indole-2-carboxylate], the pKi is not below 7.00.

The assay is the same for the next values; noted with them: Table B; Human Recombinant Matriptase 2, 3.5 nM enzyme, 62 μM substrate, 30 mins preincubation; read-out: Mean Ki.
On to `CNC12CC(COC(=O)c3cc4ccc(CN)nc4n3Cc3cc(NS(=O)(=O)Cc4ccccc4)cc4ccccc34)(C1)C2` [Compound 2.41], for which the pKi is not below 7.00.
`CN1CCC(COC(=O)c2cc3ccc(CN)nc3n2Cc2cc(NS(=O)(=O)Cc3ccccc3)cc3c2CCCC3)CC1=O` (stereo not shown) [Compound 2.19]: the pKi is not below 7.00.
For the molecule `CB1C=Cc2c(Cn3c(C(=O)OCC4CCN(C)CC4)cc4ccc(CN)nc43)cc(Br)cc2N1` [Compound 2.31], the negative-log Ki (pKi) is 5.52 to 6.30.
In the case of `C=Cc1c(N)cc(Br)cc1Cn1c(C(=O)OCC2CCN(C)CC2)cc2ccc(CN)nc21` [Compound 2.30], the pKi is less than 5.52.
With `CN1CC(CCOC(=O)c2cc3ccc(CN)nc3n2Cc2cc(NS(=O)(=O)Cc3ccccc3)cc3ccccc23)CC1=O` (stereo not shown) [Compound 2.7], the pKi was not below 7.00.
For the molecule `CN1CCC(CCOC(=O)c2cc3ccc(CN)nc3n2Cc2cc(NS(=O)(=O)Cc3ccccc3)c3ccccc3c2)CC1` [Compound 2.12], the pKi is 6.30 to 7.00.
Consider `CNC12CC(COC(=O)c3cc4ccc(CN)nc4n3Cc3cc(NS(=O)(=O)Cc4c(C)cccc4C)cc4ccccc34)(C1)C2` [Compound 2.34], for which the pKi was not below 7.00.
With `CN1CCC(COC(=O)c2cc3ccc(CN)nc3n2Cc2cccc(NS(=O)(=O)Cc3ccccc3)c2)CC1` [Compound 2.48], the pKi was 6.30 to 7.00.
For `CN1CCC(COC(=O)c2cc3ccc(CN)nc3n2Cc2cccc3cnccc23)CC1` [Compound 2.46], the pKi was less than 5.52.
